Measurements: patent US11578055B2, “Triazacyclododecansulfonamide (“TCD”)-based protein secretion inhibitors” (KEZAR LIFE SCIENCES, priority 2018, dated 2023)
Where two headings read alike, the source gives them in different places.

Columns and labels:
[1] = tested on: PD1 signal sequence plus 10 amino acids fused to Gaussia Luciferase (PD1-ss+10aa/Gaussia Luciferase); assay: Dox Induced PD1-ss-Gluc Assay; format: cell-based; conditions: 24 hr, read-out: 24 hr Dox Inducible PD1ssGluc 293FRT/TO: Mean IC50
Method in brief: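 Stable Flp-In 293 T-REx line expressing the fusion under tetracycline-inducible control, plated the day before assay. Compound dilutions added with doxycycline and incubated at 37 °C, 5% CO2; unspecified stereocentres mean data refer to stereoisomer mixtures.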

[2] = tested on: full length TNFα (amino acids 1-233) fused to Gaussia Luciferase; assay: Dox Induced TNFα-FL-Gluc Assay; format: cell-based; conditions: 24 hr, read-out: 24 hr Dox Inducible TNFaFLGluc 293FRT/TO: Mean IC50
Method in brief: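 Stable Flp-In 293 T-REx line expressing doxycycline-inducible full-length TNFα fused to Gaussia luciferase; cells plated the day before, then treated with compound dilutions in doxycycline-containing medium at 37° C, 5% CO2. Unspecified stereocentres mean stereoisomer mixtures were tested.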

[3] = In Vitro Microsome Stability Assay (rat); format: in vitro ADME
Method in brief: (§1)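 The value reported is the percentage of parent left after 30 min, calculated from analyte/IS peak-area ratios relative to time zero by LC-MS/MS. Incubations ran at 37° C in 0.1 M potassium phosphate with NADPH and microsomes (stock 20 mg/mL), with compound added from a 0.25 mM DMSO stock. Acetonitrile containing IS stopped the reactions.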

[4] = tested on: full length IL-2 (amino acids 1-153) fused to Gaussia Luciferase; assay: Dox Induced IL2-FL-Gluc Assay; format: cell-based; conditions: 24 hr, read-out: 24 hr Dox Inducible IL2FLGluc 293FRT/TO: Mean IC50
Method in brief: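 Flp-In 293 T-REx stable line expressing full-length IL-2 (aa 1-153) with C-terminal Gaussia luciferase fusion under doxycycline-inducible control. Cells plated the day before; compound dilutions added in DMSO/media containing doxycycline, incubated at 37° C, 5% CO2.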

[5] = tested on: multiple myeloma cell line NCl-H929; assay: H929 Cell Viability Assay; format: cell-based, human; conditions: Homo sapiens, NCI-H929, 48 h
Method in brief: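 NCI-H929 myeloma cells in RPMI 1640 with 10% FBS were treated with compound dilutions for 48 h at 37 °C, and viability was then read by CellTiter-Glo luminescence. Compounds drawn without stereochemistry were tested as stereoisomer mixtures.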

[6] = In Vitro Microsome Stability Assay (monkey); format: in vitro ADME
Method in brief: as §1

[7] = tested on: multiple myeloma cell line U266B1; assay: U266 Cell Viability Assay; format: cell-based, human; conditions: Homo sapiens, U-266, 48 hr
Method in brief: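 U266B1 myeloma cells in RPMI 1640 with 10% FBS were treated with compound dilutions for 48 h at 37° C, 5% CO2. Viability was read as CellTiter-Glo luminescence. Data for structures drawn without stereochemistry refer to stereoisomer mixtures.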

[8] = In Vitro Microsome Stability Assay (human); format: in vitro ADME
Method in brief: as §1

[9] = In Vitro Microsome Stability Assay (mouse); format: in vitro ADME
Method in brief: as §1

[10] = rat liver microsomes, 30 min w/ NADPH
[11] = monkey liver microsomes, 30 min w/ NADPH
[12] = human liver microsomes, 30 min w/ NADPH
[13] = mouse liver microsomes, 30 min w/ NADPH

SMILES | IC50 ([1]; Dox inducible, 293FRT/TO cells) [nM] | IC50 ([2]; Dox inducible, 293FRT/TO cells) [nM] | Liver Microsome Stability-% Left after 30 min w/ NADPH (%) Rat [3, 10] [%] | IC50 ([4]; Dox inducible, 293FRT/TO cells) [nM] | EC50 ([5]; H929, Celltiter-Glo) [nM] | Liver Microsome Stability-% Left after 30 min w/ NADPH (%) Monkey [6, 11] [%] | EC50 ([7]; U266, Celltiter-Glo) [nM] | Liver Microsome Stability-% Left after 30 min w/ NADPH (%) Human [8, 12] [%] | Liver Microsome Stability-% Left after 30 min w/ NADPH (%) Mouse [9, 13] [%] | IC50 ([1]; 293FRT/TO) [nM] | IC50 ([2]; 293FRT/TO) [nM] | Liver Microsome Stability-% Left after 30 min w/ NADPH (%) Rat ([3]; rat, 30 min, NADPH) [%] | IC50 ([4]; 293FRT/TO) [nM] | EC50 ([5]; H929, read-out: 48 hr H929 Viability Celltiter-Glo: Mean EC50) [nM] | Liver Microsome Stability-% Left after 30 min w/ NADPH (%) Monkey ([6]; monkey, 30 min, NADPH) [%] | EC50 ([7]; U266, read-out: 48 hr U266 Viability Celltiter-Glo: Mean EC50) [nM] | Liver Microsome Stability-% Left after 30 min w/ NADPH (%) Human ([8]; human, 30 min, NADPH) [%] | Liver Microsome Stability-% Left after 30 min w/ NADPH (%) Mouse ([9]; mouse, 30 min, NADPH) [%]
C[C@H]1CN(S(=O)(=O)c2ccc(N(C)C)cc2)CCCN(Cc2ncco2)CCCN(S(=O)(=O)N2CCc3cc(Cl)ccc3C2)C1 [A125, 4-{[(3S)-5-[(6-chloro-1,2,3,4-tetrahydroisoquinolin-2-yl)sulfonyl]-3-methyl-9-[(1,3-oxazol-2-yl)methyl]-1,5,9-triazacyclododecan-1-yl]sulfonyl}-N,N-dimethylaniline] | 829 | 11500 | 0.37 | 1090 | > 25000 | 8.67 | > 25000 | 0.2 | 0.14 |  |  |  |  |  |  |  |  | 
C[C@H]1CN(S(=O)(=O)c2ccc(N(C)C)cc2)CCCN(CC2CCCCC2)CCCN(S(=O)(=O)N2CCc3c(Cl)cccc3C2)C1 [A181, 4-{[(3S)-5-[(5-chloro-1,2,3,4-tetrahydroisoquinolin-2-yl)sulfonyl]-9-(cyclohexylmethyl)-3-methyl-1,5,9-triazacyclododecan-1-yl]sulfonyl}-N,N-dimethylaniline] | 38.7 | 984 | 22.0 | 122 | 1480 | 27.9 | > 25000 | 23.3 | 17.1 |  |  |  |  |  |  |  |  | 
C[C@H]1CN(S(=O)(=O)c2cccc(N(C)C)c2)CCCN(CC2CCCCC2)CCCN(S(=O)(=O)N2CCc3cc(Cl)ccc3C2)C1 [A168, 3-{[(3S)-5-[(6-chloro-1,2,3,4-tetrahydroisoquinolin-2-yl)sulfonyl]-9-(cyclohexylmethyl)-3-methyl-1,5,9-triazacyclododecan-1-yl]sulfonyl}-N,N-dimethylaniline] | 1490 | > 25000 | 42.1 | 1140 | > 25000 | 73 | > 25000 | 25.7 | 42 |  |  |  |  |  |  |  |  | 
C[C@H]1CN(S(=O)(=O)c2ccc(N(C)C)cc2)CCCN(CC2CC(F)(F)C2)CCCN(S(=O)(=O)N2CCc3cc(Cl)ccc3C2)C1 [A169, 4-{[(3S)-5-[(6-chloro-1,2,3,4-tetrahydroisoquinolin-2-yl)sulfonyl]-9-[(3,3-difluorocyclobutyl)methyl]-3-methyl-1,5,9-triazacyclododecan-1-yl]sulfonyl}-N,N-dimethylaniline] | 81.5 | 1050 | 13.1 | 192 | 3270 | 4.23 | > 25000 | 34.7 | 22.5 |  |  |  |  |  |  |  |  | 
C[C@H]1CN(S(=O)(=O)c2ccc(N(C)C)cc2)CCCCN(S(=O)(=O)N2CCc3cc(Cl)ccc3C2)C1 [B21] | 3950 | > 25000 | 0.06 | > 25000 | > 25000 | 0.03 | > 25000 | 0.17 | 0.16 |  |  |  |  |  |  |  |  | 
C[C@H]1CN(S(=O)(=O)c2ccc(N(C)C)cc2)CCCN(CC2CCCCC2)CCCN(S(=O)(=O)N2CC(c3ccccc3)C2)C1 [A101, 4-{[(3S)-9-(cyclohexylmethyl)-3-methyl-5-[(3-phenylazetidin-1-yl)sulfonyl]-1,5,9-triazacyclododecan-1-yl]sulfonyl}-N,N-dimethylaniline] | 220 | 3430 | 25.4 | 564 | > 25000 | 18.8 | > 25000 | 30.2 | 20.8 |  |  |  |  |  |  |  |  | 
CC1Cc2ccccc2CN1S(=O)(=O)N1CCCN(CC2CCCCC2)CCCN(S(=O)(=O)c2ccc(N(C)C)cc2)C[C@H](C)C1 (stereo partly drawn) [A172, 4-{[(3S)-9-(cyclohexylmethyl)-3-methyl-5-[(3-methyl-1,2,3,4-tetrahydroisoquinolin-2-yl]sulfonyl]-1,5,9-triazacyclododecan-1-yl]sulfonyl}-N,N-dimethylaniline] | 29.2 | 436 | 2.23 | 66.4 | 1750 | 2.63 | > 25000 | 3.46 | 3.65 |  |  |  |  |  |  |  |  | 
C[C@@H]1CN(CC2CCCCC2)C[C@H](C)CN(S(=O)(=O)c2ccc(N(C)C)cc2)C[C@H](C)CN(S(=O)(=O)N2CCc3cc(Cl)ccc3C2)C1 [B16, 4-{[(3S,7R,11S)-5-[(6-chloro-1,2,3,4-tetrahydroisoquinolin-2-yl]sulfonyl]-9-(cyclohexylmethyl)-3,7,11-trimethyl-1,5,9-triazacyclododecan-1-yl]sulfonyl}-N,N-dimethylaniline] | 449 | 13900 | 72.3 | 826 | > 25000 | 44.7 | > 25000 | 55.2 | 58.4 |  |  |  |  |  |  |  |  | 
C[C@H]1CN(S(=O)(=O)c2ccc(N(C)C)cc2)CCCN(CC2CCCCC2)CCCN(S(=O)(=O)N2CCN(c3ncccn3)CC2)C1 [A93, 4-{[(3S)-9-(cyclohexylmethyl)-3-methyl-5-{[4-(pyrimidin-2-yl)piperazin-1-yl]sulfonyl}-1,5,9-triazacyclododecan-1-yl]sulfonyl}-N,N-dimethylaniline] |  |  |  |  |  |  |  |  |  | 670 | > 25000 | 0.51 | 911 | 10400 | 0.18 | > 25000 | 0.84 | 0.4
C[C@H]1CN(S(=O)(=O)c2ccc(N(C)C)cc2)CCCN(CC2CCC2)CCCN(S(=O)(=O)N2CCc3cc(Cl)ccc3C2)C1 [A108, 4-{[(3S)-5-[(6-chloro-1,2,3,4-tetrahydroisoquinolin-2-yl)sulfonyl]-9-(cyclobutylmethyl)-3-methyl-1,5,9-triazacyclododecan-1-yl]sulfonyl}-N,N-dimethylaniline] | 29.6 | 546 | 2.05 | 68.3 | 421 | 0.88 | > 25000 | 1.06 | 0.62 |  |  |  |  |  |  |  |  | 
C[C@H]1CN(S(=O)(=O)c2ccc(N(C)C)cc2)CCCN(CC2=CCCC2)CCCN(S(=O)(=O)N2CCc3cc(Cl)ccc3C2)C1 [A142] | 38.2 | 741 | 22.6 | 67 | 1450 | 3.89 | > 25000 | 11.8 | 16 |  |  |  |  |  |  |  |  | 
